Results from US7964594B1, “Amino oxazine derivatives” (Hoffmann-La Roche Inc., priority 2009, dated 2011).

Molecular target: T1, BACE2 (Rattus norvegicus, UniProt Q6IE75)
T1 construct: endogenous cellular BACE2 in the Ins1e rat cell line; endogenous in cells; host or cells: INS-TMEM27 (INS1e-derived rat insulinoma cell line with doxycycline-inducible full-length hTMEM27)
T1 sequence (Q6IE75 63-514): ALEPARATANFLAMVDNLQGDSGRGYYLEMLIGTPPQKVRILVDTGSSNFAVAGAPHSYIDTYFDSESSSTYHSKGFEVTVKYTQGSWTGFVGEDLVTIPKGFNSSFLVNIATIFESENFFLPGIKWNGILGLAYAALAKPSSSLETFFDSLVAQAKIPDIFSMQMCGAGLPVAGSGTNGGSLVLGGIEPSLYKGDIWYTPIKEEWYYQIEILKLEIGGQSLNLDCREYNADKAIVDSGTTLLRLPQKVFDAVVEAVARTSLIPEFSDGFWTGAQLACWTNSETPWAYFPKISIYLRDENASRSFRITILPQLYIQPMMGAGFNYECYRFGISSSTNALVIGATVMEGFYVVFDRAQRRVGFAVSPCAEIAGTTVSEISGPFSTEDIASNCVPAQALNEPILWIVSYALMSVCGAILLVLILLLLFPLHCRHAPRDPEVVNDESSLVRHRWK
Assay: Assay for BACE inhibition by measuring cellular TMEM27 cleavage (INS-TMEM27 cells, ELISA of shed TMEM27)
Assay type: cell-based
Settings: inhibition of human TMEM27 cleavage by endogenous cellular BACE2 in Ins1e rat cell line; ELISA of culture medium
From the text: Assay for BACE Inhibition by Measuring Cellular TMEM27 Cleavage
The assay uses the principle of inhibition of human TMEM27 cleavage by endogenous cellular BACE2 in the Ins1e rat cell line and shedding from the cell surface into the culture medium, followed by detection in an ELISA assay. Inhibition of BACE2 prevents the cleavage and shedding in a dose-dependent manner.
The stable cell line “INS-TMEM27” represents an INS1e-derived cell line with inducible expression (using the TetOn system) of full-length hTMEM27 in a doxycycline-dependent manner. The cells were cultured throughout the experiment in RPMI1640+Glutamax (Invitrogen) Penicillin/Streptomycin, 10% Fetal bovine serum, […], […], 100 micrograms/ml G418 and 100 microgram/ml hygromycin and were grown in adherent culture at 37° C. in a standard CO2 cell culture incubator.
INS-TMEM27 cells were seeded in 96-well plates. After 2 days in culture, BACE2 inhibitor was added in a range of concentrations as required by the assay and after a further two hours, doxycycline was added to a final concentration of 500 ng/ml. The cells were incubated for a further 46 hours and the supernatant harvested for detection of shed TMEM27.
An ELISA assay (using a pair of mouse anti-human-TMEM27 antibodies, raised against the extracellular domain of TMEM27) was used for detection of TMEM27 in the culture medium. An IC50 for BACE2 inhibition was calculated using the ELISA readout for each inhibitor concentration with standard curve-fitting software XLfit (IDBS) for the Excel spreadsheet program.

SMILES | IC50
C[C@@]1(c2cc(NC(=O)c3ccc(C(F)(F)F)cn3)ccc2F)CCOC(N)=N1 [Example 5, 5-Trifluoromethyl-pyridine-2-carboxylic acid [3-((S)-2-amino-4-methyl-5,6-dihydro-4H-[1,3]oxazin-4-yl)-4-fluoro-phenyl]-amide] | 0.089 µM
CC[C@@]1(c2cc(NC(=O)c3ccc(Cl)cn3)ccc2F)CCOC(N)=N1 [Example 19, 5-Chloro-pyridine-2-carboxylic acid [3-((S)-2-amino-4-ethyl-5,6-dihydro-4H-[1,3]oxazin-4-yl)-4-fluoro-phenyl]-amide] | 0.008 µM
C[C@]1(c2cc(NC(=O)c3ncc(Cl)cc3Cl)ccc2F)N=C(N)OCC12CC2 [Example 53, (S)—N-(3-(6-Amino-8-methyl-5-oxa-7-azaspiro[2.5]oct-6-en-8-yl)-4-fluorophenyl)-3,5-dichloropicolinamide] | 0.006 µM
C[C@]1(c2cc(NC(=O)C3(C(F)(F)F)CC3)ccc2F)N=C(N)OCC12CC2 [Example 54, (S)—N-(3-(6-Amino-8-methyl-5-oxa-7-azaspiro[2.5]oct-6-en-8-yl)-4-fluorophenyl)-1-(trifluoromethyl)cyclopropanecarboxamide] | 0.81 µM
C[C@@]1(c2cc(NC(=O)c3ccc(Cl)s3)ccc2F)CCOC(N)=N1 [Example 10, 5-Chloro-thiophene-2-carboxylic acid [3-((S)-2-amino-4-methyl-5,6-dihydro-4H-[1,3]oxazin-4-yl)-4-fluoro-phenyl]-amide] | 0.915 µM
C[C@]1(c2cc(NC(=O)c3ncc(Cl)cn3)ccc2F)N=C(N)OCC12CC2 [Example 44, 5-Chloro-pyrimidine-2-carboxylic acid [3-((S)-6-amino-8-methyl-5-oxa-7-aza-spiro[2.5]oct-6-en-8-yl)-4-fluoro-phenyl]-amide] | 0.0071 µM
C[C@]1(c2cc(NC(=O)c3c(F)cccc3F)ccc2F)N=C(N)OCC12CC2 [Example 47, (S)—N-(3-(6-Amino-8-methyl-5-oxa-7-azaspiro[2.5]oct-6-en-8-yl)-4-fluorophenyl)-2,6-difluorobenzamide] | 0.62 µM
C[C@@]1(c2cc(NC(=O)c3n[nH]cc3Cl)ccc2F)CCOC(N)=N1 [Example 64] | 0.464 µM
C[C@@]1(c2cc(NC(=O)C(F)C(F)(F)F)ccc2F)CCOC(N)=N1 (stereo partly drawn) [Example 45, N-[3-((S)-2-Amino-4-methyl-5,6-dihydro-4H-[1,3]oxazin-4-yl)-4-fluoro-phenyl]-2,3,3,3-tetrafluoro-propionamide] | 0.4 µM
Cn1ccc(C(=O)Nc2ccc(F)c([C@]3(C)CCOC(N)=N3)c2)n1 [Example 29] | 0.003 µM
C[C@@]1(c2cc(NC(=O)c3ncc(C(F)(F)F)cc3Cl)ccc2F)CCOC(N)=N1 [Example 31, 3-Chloro-5-trifluoromethyl-pyridine-2-carboxylic acid [3-((S)-2-amino-4-methyl-5,6-dihydro-4H-[1,3]oxazin-4-yl)-4-fluoro-phenyl]-amide] | 0.011 µM
C[C@@]1(c2cc(NC(=O)c3cnc(Cl)cn3)ccc2F)CCOC(N)=N1 [Example 14] | 0.19 µM
C[C@@]1(c2cc(NC(=O)c3ncccc3OCC(F)(F)F)ccc2F)CCOC(N)=N1 [Example 60, (S)—N-(3-(2-Amino-4-methyl-5,6-dihydro-4H-1,3-oxazin-4-yl)-4-fluorophenyl)-3-(2,2,2-trifluoroethoxy)picolinamide] | 0.143 µM
C[C@]1(c2cc(NC(=O)c3ccccn3)ccc2F)N=C(N)OCC12CC2 [Example 43, Pyridine-2-carboxylic acid [3-((S)-6-amino-8-methyl-5-oxa-7-aza-spiro[2.5]oct-6-en-8-yl)-4-fluoro-phenyl]-amide] | 0.018 µM
Cc1cc(Cl)cnc1C(=O)Nc1ccc(F)c([C@]2(C)CCOC(N)=N2)c1 [Example 26, 5-Chloro-3-methyl-pyridine-2-carboxylic acid [3-((S)-2-amino-4-methyl-5,6-dihydro-4H-[1,3]oxazin-4-yl)-4-fluoro-phenyl]-amide] | 0.001 µM
Cc1nc(C(=O)Nc2ccc(F)c([C@]3(C)CCOC(N)=N3)c2)cs1 [Example 28] | 0.004 µM
C[C@@]1(c2cc(NC(=O)c3ncc(F)cc3Cl)ccc2F)CCOC(N)=N1 [Example 35] | 0.011 µM
C[C@@]1(c2cc(NC(=O)c3ccc(F)s3)ccc2F)CCOC(N)=N1 [Example 7, 5-Fluoro-thiophene-2-carboxylic acid [3-((S)-2-amino-4-methyl-5,6-dihydro-4H-[1,3]oxazin-4-yl)-4-fluoro-phenyl]-amide] | 0.34 µM
C[C@@]1(c2cc(NC(=O)C3(C(F)(F)F)CC3)ccc2F)CCOC(N)=N1 [Example 58, 1-Trifluoromethyl-cyclopropanecarboxylic acid [3-((S)-2-amino-4-methyl-5,6-dihydro-4H-[1,3]oxazin-4-yl)-4-fluoro-phenyl]-amide] | 0.7 µM
C[C@]1(c2cc(NC(=O)c3ncccc3F)ccc2F)N=C(N)OCC12CC2 [Example 37, 3-Fluoro-pyridine-2-carboxylic acid [3-((S)-6-amino-8-methyl-5-oxa-7-aza-spiro[2.5]oct-6-en-8-yl)-4-fluoro-phenyl]-amide] | 0.04 µM
Cc1ccc(C(=O)Nc2ccc(F)c([C@]3(C)CCOC(N)=N3)c2)s1 [Example 17, 5-Methyl-thiophene-2-carboxylic acid [3-((S)-2-amino-4-methyl-5,6-dihydro-4H-[1,3]oxazin-4-yl)-4-fluoro-phenyl]-amide] | 0.011 µM
COc1cccnc1C(=O)Nc1ccc(F)c([C@]2(C)CCOC(N)=N2)c1 [Example 27, 3-Methoxy-pyridine-2-carboxylic acid [3-((S)-2-amino-4-methyl-5,6-dihydro-4H-[1,3]oxazin-4-yl)-4-fluoro-phenyl]-amide] | 0.023 µM
C[C@]1(c2cc(NC(=O)c3ncccc3C(F)(F)F)ccc2F)N=C(N)OCC12CC2 [Example 51, (S)—N-(3-(6-Amino-8-methyl-5-oxa-7-azaspiro[2.5]oct-6-en-8-yl)-4-fluorophenyl)-3-(trifluoromethyl)picolinamide] | 0.073 µM
Cc1ccsc1C(=O)Nc1ccc(F)c([C@]2(C)CCOC(N)=N2)c1 [Example 34] | 0.35 µM
C[C@@]1(c2cc(NC(=O)c3ncccc3F)ccc2F)CCOC(N)=N1 [Example 6, 3-Fluoro-pyridine-2-carboxylic acid [3-((S)-2-amino-4-methyl-5,6-dihydro-4H-[1,3]oxazin-4-yl)-4-fluoro-phenyl]-amide] | 0.019 µM
CC[C@@]1(c2cc(NC(=O)c3ccccn3)ccc2F)CCOC(N)=N1 [Example 18, Pyridine-2-carboxylic acid [3-((S)-2-amino-4-ethyl-5,6-dihydro-4H-[1,3]oxazin-4-yl)-4-fluoro-phenyl]-amide] | 0.035 µM
CC[C@@]1(c2cc(NC(=O)c3coc(C)n3)ccc2F)CCOC(N)=N1 [Example 24] | 0.001 µM
C[C@]1(c2cc(NC(=O)c3ccc(C#N)cn3)ccc2F)N=C(N)OCC12CC2 [Example 41, 5-Cyano-pyridine-2-carboxylic acid [3-((S)-6-amino-8-methyl-5-oxa-7-aza-spiro[2.5]oct-6-en-8-yl)-4-fluoro-phenyl]-amide] | 0.052 µM
CC1(C(=O)Nc2ccc(F)c([C@]3(C)CCOC(N)=N3)c2)COC1 [Example 62, 3-Methyl-oxetane-3-carboxylic acid [3-((S)-2-amino-4-methyl-5,6-dihydro-4H-[1,3]oxazin-4-yl)-4-fluoro-phenyl]-amide] | 9.13 µM
